Measurements published in patent publication US7816358B2, “Pharmaceutical formulations comprising N,N′-disubstituted piperazine compounds” (Gruenenthal GmbH, priority 2001, dated 2010).

Tested on: gabapentin binding site
Assay: Gabapentin binding assay: displacement of [3H]-gabapentin from its binding site
Details: compound 10 μM in the test batch; [3H]-gabapentin 10 nM; homogenate 0.6 mg/ml protein; 40 minutes at room temperature
Method: In the binding assay, the binding and affinities of the compounds according to the invention to the binding site—which is also hitherto still unknown in science—of gabapentin is investigated. The affinity of the compounds was measured via the displacement of gabapentin from its binding site.
The procedure for the measurement was as follows: Homogenate aliquots were thawed and diluted 20-fold with buffer 1, resuspended and then centrifuged at 110,000×g for 20 minutes. The pellet was resuspended with buffer 2 (10 mM HEPES, 0.05% NaN3, 1 tablet of Complete (Roche Diagnostics) per 100 ml, 0.004% Structol, pH 7.4) and adjusted to a protein concentration of 0.6 mg/ml. 225 μl of homogenate, 20 μl of [^3H]-gabapentin (76 Ci/mmol) in buffer 2, corresponding to a concentration of 10 nM in the test batch, and 5 μl of a compound according to the invention (dissolved in 25% DMSO in water) with a concentration of 10 μM in the test batch were incubated on a shaking machine for 40 minutes at room temperature in 96-well microtiter plates (polypropylene, Costar) and the incubated mixture was then filtered with suction on 96-well Unifilter plates with GF/B filters (Whatman) using a harvester (Robotic Harvester 9600, Brandel). The filter plates were preswollen for 40 minutes in buffer 3 (50 mM Tris, 0.5% PEI, pH 7.4) before the filtering step. The filter plates were washed three times with wash buffer (0.1 M NaCl with 0.05 NaN3) after the filtering step in order to remove non-bound radioligand, and then dried in a drying cabinet at 55° C. After a cooling phase of 15 minutes, 35 μl of scintillator (Ultima Gold MV, Packard) were added per well and the radioactivity on the filters was then determined in a β-counter (Trilux Microbeta, Wallac).

Row | SMILES | Gabapentin [%] inhibition [%]
1 | CN1CCN(CC2CCCCCCC2(O)Cc2ccccc2Cl)CC1 (stereo not drawn) [1-(2-Chloro-benzyl)-2-(4-methyl-piperazin-1-ylmethyl)-cyclooctanol] | 61
2 | CN1CCN(CC2CCCCCCC2(O)Cc2cccc(F)c2)CC1 (stereo not drawn) [1-(3-Fluoro-benzyl)-2-(4-methyl-piperazin-1-ylmethyl)-cyclooctanol] | 42
3 | CN1CCN(CC2CCCCCC2(O)Cc2ccccc2Cl)CC1 (stereo not drawn) [1-(2-Chloro-benzyl)-2-(4-methyl-piperazin-1-ylmethyl)-cycloheptanol] | 74
4 | CN1CCN(CC2CCCCCCCCCCC2(O)Cc2cccc(F)c2)CC1 (stereo not drawn) [1-(3-Fluoro-benzyl)-2-(4-methyl-piperazin-1-ylmeethyl)-cyclododecanol] | 45
5 | CN1CCN(CC2CCCCCCC2(O)Cc2c(F)cccc2Cl)CC1 (stereo not drawn) [1-(2-Chloro-6-fluoro-benzyl)-2-(4-methyl-piperazin-1-ylmethyl)-cyclooctanol] | 60
6 | C=CC1(O)CCCCCCCCCCC1CN1CCN(C)CC1 (stereo not drawn) [2-(4-Methyl-piperazin-1-ylmethyl)-1-vinyl-cyclododecanol] | 49
7 | CN1CCN(CC2CCCCCC2(O)Cc2ccc(Cl)cc2Cl)CC1 (stereo not drawn) [1-(2,4-Dichloro-benzyl)-2-(4-methyl-piperazin-1-ylmethyl)-cycloheptanol] | 48
8 | CN1CCN(CC2CCCCCC2(O)Cc2cccc(F)c2)CC1 (stereo not drawn) [1-(3-Fluoro-benzyl)-2-(4-methyl-piperazin-1-ylmethyl)-cycloheptanol] | 44
9 | CN1CCN(CC2CCCCCCC2(O)Cc2ccc(Cl)cc2Cl)CC1 (stereo not drawn) [1-(2,4-Dichloro-benzyl)-2-(4-methyl-piperazin-1-ylmethyl)-cyclooctanol] | 48
10 | CN1CCN(CC2CCCCCCCCCCC2(O)Cc2ccccc2)CC1 (stereo not drawn) [1-Benzyl-2-(4-methyl-piperazin-1-ylmethyl)-cyclododecanol] | 56
11 | CN1CCN(CC2CCCCCCC2(O)Cc2ccc(F)cc2)CC1 (stereo not drawn) [1-(4-Fluoro-benzyl)-2-(4-methyl-piperazin-1-ylmethyl)-cyclooctanol] | 39
12 | CN1CCN(CC2CCCCCC2(O)Cc2c(F)cccc2Cl)CC1 (stereo not drawn) [1-(2-Chloro-6-fluoro-benzyl)-2-(4-methyl-piperzazin-1-ylmethyl)-cycloheptanol] | 82
